Organism: Rattus norvegicus
Assay: DrugMatrix - Regimen: Daily Repeat
Assay type: toxicity, organism-based, Sprague-Dawley
Set-up: regimen Daily Repeat, gender Male, age 6-8 weeks
Details: in vivo, po, route oral GAVAGE, […]; for ABSOLUTE BASOPHIL / ABSOLUTE EOSINOPHIL / ABSOLUTE LYMPHOCYTE / ABSOLUTE MONOCYTE / ABSOLUTE SEGMENTED NEUTROPHIL / BASOPHIL / EOSINOPHIL / ERYTHROCYTE COUNT / HEMATOCRIT / HEMOGLOBIN / LEUKOCYTE COUNT / LYMPHOCYTE / MEAN CORPUSCULAR HEMOGLOBIN / MEAN CORPUSCULAR HEMOGLOBIN CONCENTRATION / MEAN CORPUSCULAR VOLUME / MONOCYTE / NEUTROPHIL / NUCLEATED RED BLOOD CELLS / PLATELET COUNT: tissue Blood; for ALANINE AMINOTRANSFERASE / ALBUMIN / ALKALINE PHOSPHATASE / ASPARTATE AMINOTRANSFERASE / BLOOD UREA NITROGEN / CARBON DIOXIDE / CHLORIDE / CHOLESTEROL / CREATINE PHOSPHOKINASE / CREATININE / GLUCOSE / LACTATE DEHYDROGENASE / LIPASE / PHOSPHORUS / POTASSIUM / SODIUM / TOTAL BILIRUBIN / TOTAL PROTEIN / URIC ACID: tissue Plasma
[1] = 0 mg/kg, 72 h, dose level Control, time 3 day
[2] = 0 mg/kg, 120 h, dose level Control, time 5 day
[3] = 30 mg/kg, 72 h, dose level Low, time 3 day
[4] = 30 mg/kg, 120 h, dose level Low, time 5 day

## Cc1ccc(-c2cc(C(F)(F)F)nn2-c2ccc(S(N)(=O)=O)cc2)cc1 [CELECOXIB]
[1]
  ABSOLUTE BASOPHIL: 0 CELLS/uL
  ABSOLUTE EOSINOPHIL: 104.17 CELLS/uL
  ABSOLUTE LYMPHOCYTE: 14547 CELLS/uL
  ABSOLUTE MONOCYTE: 292 CELLS/uL
  ABSOLUTE SEGMENTED NEUTROPHIL: 1640.17 CELLS/uL
  BASOPHIL: 0%
  EOSINOPHIL: 0.67%
  ERYTHROCYTE COUNT: 5.35 x10E6/uL
  HEMATOCRIT: 33.67%
  HEMOGLOBIN: 13.38 G/DL
  LEUKOCYTE COUNT: 16.58 x10E3/uL
  LYMPHOCYTE: 87.5%
  MEAN CORPUSCULAR HEMOGLOBIN: 25.05 pg
  MEAN CORPUSCULAR HEMOGLOBIN CONCENTRATION: 39.78 G/DL
  MEAN CORPUSCULAR VOLUME: 62.97 fL
  MONOCYTE: 1.83%
  NEUTROPHIL: 10%
  NUCLEATED RED BLOOD CELLS: 0 /100WBC
  PLATELET COUNT: 1274.5 x10E3/uL
  ALANINE AMINOTRANSFERASE: 76.83 u/L
  ALBUMIN: 3.97 G/DL
  ALKALINE PHOSPHATASE: 347 u/L
  ASPARTATE AMINOTRANSFERASE: 97.17 u/L
  BLOOD UREA NITROGEN: 14.33 mg/dL
  CARBON DIOXIDE: 25.5 mmol/L
  CHLORIDE: 100.33 MEQ/L
  CHOLESTEROL: 68.67 mg/dL
  CREATINE PHOSPHOKINASE: 659.17 u/L
  CREATININE: 0.32 mg/dL
  GLUCOSE: 160.67 mg/dL
  LACTATE DEHYDROGENASE: 271.5 u/L
  LIPASE: 11.67 u/L
  PHOSPHORUS: 10.65 mg/dL
  POTASSIUM: 5.95 MEQ/L
  SODIUM: 139.65 MEQ/L
  TOTAL BILIRUBIN: 0.2 mg/dL
  TOTAL PROTEIN: 5.72 G/DL
  URIC ACID: 1.37 mg/dL
[2]
  ABSOLUTE BASOPHIL: 0 CELLS/uL
  ABSOLUTE EOSINOPHIL: 331.5 CELLS/uL
  ABSOLUTE LYMPHOCYTE: 15021.67 CELLS/uL
  ABSOLUTE MONOCYTE: 376.5 CELLS/uL
  ABSOLUTE SEGMENTED NEUTROPHIL: 3070.33 CELLS/uL
  BASOPHIL: 0%
  EOSINOPHIL: 1.83%
  ERYTHROCYTE COUNT: 5.24 x10E6/uL
  HEMATOCRIT: 33.22%
  HEMOGLOBIN: 13.2 G/DL
  LEUKOCYTE COUNT: 18.8 x10E3/uL
  LYMPHOCYTE: 79.67%
  MEAN CORPUSCULAR HEMOGLOBIN: 25.17 pg
  MEAN CORPUSCULAR HEMOGLOBIN CONCENTRATION: 39.73 G/DL
  MEAN CORPUSCULAR VOLUME: 63.38 fL
  MONOCYTE: 2%
  NEUTROPHIL: 16.5%
  NUCLEATED RED BLOOD CELLS: 0 /100WBC
  PLATELET COUNT: 1142.67 x10E3/uL
  ALANINE AMINOTRANSFERASE: 52.5 u/L
  ALBUMIN: 3.9 G/DL
  ALKALINE PHOSPHATASE: 284.5 u/L
  ASPARTATE AMINOTRANSFERASE: 81.33 u/L
  BLOOD UREA NITROGEN: 16 mg/dL
  CARBON DIOXIDE: 25.33 mmol/L
  CHLORIDE: 99.5 MEQ/L
  CHOLESTEROL: 74.83 mg/dL
  CREATINE PHOSPHOKINASE: 448.33 u/L
  CREATININE: 0.37 mg/dL
  GLUCOSE: 164.17 mg/dL
  LACTATE DEHYDROGENASE: 290.67 u/L
  LIPASE: 6.83 u/L
  PHOSPHORUS: 11.5 mg/dL
  POTASSIUM: 6.28 MEQ/L
  SODIUM: 139.5 MEQ/L
  TOTAL BILIRUBIN: 0.13 mg/dL
  TOTAL PROTEIN: 5.55 G/DL
  URIC ACID: 1.12 mg/dL
[3]
  ABSOLUTE BASOPHIL: 0 CELLS/uL
  ABSOLUTE EOSINOPHIL: 104 CELLS/uL
  ABSOLUTE LYMPHOCYTE: 15747.67 CELLS/uL
  ABSOLUTE MONOCYTE: 360 CELLS/uL
  ABSOLUTE SEGMENTED NEUTROPHIL: 1788.33 CELLS/uL
  BASOPHIL: 0%
  EOSINOPHIL: 0.67%
  ERYTHROCYTE COUNT: 5.61 x10E6/uL
  HEMATOCRIT: 36.13%
  HEMOGLOBIN: 13.97 G/DL
  LEUKOCYTE COUNT: 18 x10E3/uL
  LYMPHOCYTE: 87.33%
  MEAN CORPUSCULAR HEMOGLOBIN: 24.9 pg
  MEAN CORPUSCULAR HEMOGLOBIN CONCENTRATION: 38.63 G/DL
  MEAN CORPUSCULAR VOLUME: 64.4 fL
  MONOCYTE: 2%
  NEUTROPHIL: 10%
  NUCLEATED RED BLOOD CELLS: 0.33 /100WBC
  PLATELET COUNT: 1151.67 x10E3/uL
  ALANINE AMINOTRANSFERASE: 77 u/L
  ALBUMIN: 4.2 G/DL
  ALKALINE PHOSPHATASE: 443 u/L
  ASPARTATE AMINOTRANSFERASE: 79.33 u/L
  BLOOD UREA NITROGEN: 10.67 mg/dL
  CARBON DIOXIDE: 22.67 mmol/L
  CHLORIDE: 102.67 MEQ/L
  CHOLESTEROL: 51 mg/dL
  CREATINE PHOSPHOKINASE: 260 u/L
  CREATININE: 0.12 mg/dL
  GLUCOSE: 164.33 mg/dL
  LACTATE DEHYDROGENASE: 234.67 u/L
  LIPASE: 10.67 u/L
  PHOSPHORUS: 11.63 mg/dL
  POTASSIUM: 6.08 MEQ/L
  SODIUM: 142.6 MEQ/L
  TOTAL BILIRUBIN: 0.13 mg/dL
  TOTAL PROTEIN: 6.07 G/DL
  URIC ACID: 1.27 mg/dL
[4]
  ABSOLUTE BASOPHIL: 0 CELLS/uL
  ABSOLUTE EOSINOPHIL: 252.67 CELLS/uL
  ABSOLUTE LYMPHOCYTE: 15009.33 CELLS/uL
  ABSOLUTE MONOCYTE: 640.67 CELLS/uL
  ABSOLUTE SEGMENTED NEUTROPHIL: 3164 CELLS/uL
  BASOPHIL: 0%
  EOSINOPHIL: 1.33%
  ERYTHROCYTE COUNT: 5.76 x10E6/uL
  HEMATOCRIT: 36.13%
  HEMOGLOBIN: 14 G/DL
  LEUKOCYTE COUNT: 19.07 x10E3/uL
  LYMPHOCYTE: 78.67%
  MEAN CORPUSCULAR HEMOGLOBIN: 24.33 pg
  MEAN CORPUSCULAR HEMOGLOBIN CONCENTRATION: 38.73 G/DL
  MEAN CORPUSCULAR VOLUME: 62.87 fL
  MONOCYTE: 3.33%
  NEUTROPHIL: 16.67%
  NUCLEATED RED BLOOD CELLS: 0 /100WBC
  PLATELET COUNT: 1265.67 x10E3/uL
  ALANINE AMINOTRANSFERASE: 70.67 u/L

Reference: ChEMBL document CHEMBL3885881, “DrugMatrix”
